From PubChem BioAssay AID248 (DTP/NCI, 2004)
“And” between values parts separate entries of the source, which are not always exact repeats. Identical values can stand only once. Toxic doses and inconclusive results are not listed. Cut-off read from the data, not from the text of the source: active = T/C of 150% or more; inactive = T/C below 125%.

Tested on: L1210 leukemia ip in BDF1 mice, survival T/C
Assay: NCI In Vivo Anticancer Drug Screen. Data for tumor model L1210 Leukemia (intraperitoneal) in B6D2F1 (BDF1) mice
Conditions: higher = longer survival
Procedure, shortened: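 Tumor cells were implanted, animals were treated, and survival was followed. The result divides the treated measurement by the vehicle-control measurement.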

[1] = endpoint: mean survival time, dose: 100.0 mg/kg/injection, schedule: Q04DX003 (ip), vehicle: saline
[2] = endpoint: mean survival time, dose: 200.0 mg/kg/injection, schedule: Q01DX009 (ip), vehicle: Klucel (hydroxypropylcellulose) (HPC)
[3] = endpoint: mean survival time, dose: 200.0 mg/kg/injection, schedule: Q04DX003 (ip), vehicle: saline
[4] = endpoint: mean survival time, dose: 400.0 mg/kg/injection, schedule: Q01DX009 (ip), vehicle: Klucel (hydroxypropylcellulose) (HPC)
[5] = endpoint: mean survival time, dose: 400.0 mg/kg/injection, schedule: Q04DX003 (ip), vehicle: saline
[6] = endpoint: mean survival time, dose: 100.0 mg/kg/injection, schedule: Q01DX001 (ip), vehicle: carboxymethylcellulose (CMC)
[7] = endpoint: mean survival time, dose: 200.0 mg/kg/injection, schedule: Q01DX001 (ip), vehicle: carboxymethylcellulose (CMC)
[8] = endpoint: mean survival time, dose: 400.0 mg/kg/injection, schedule: Q01DX001 (ip), vehicle: carboxymethylcellulose (CMC)

Measured: T/C

Cc1cc(NCCCCCCNc2cc(C)nc3ccc(N)cc23)c2cc(N)ccc2n1
active: endpoint: mean survival time, dose: 18.75 mg/kg/injection, schedule: Q01DX009 (ip), vehicle: saline with Tween-80 152 % of control | endpoint: mean survival time, dose: 37.5 mg/kg/injection, schedule: Q01DX009 (ip), vehicle: saline with Tween-80 176 % of control | endpoint: mean survival time, dose: 37.5 mg/kg/injection, schedule: Q01DX009 (ip), vehicle: saline 164 % of control | endpoint: mean survival time, dose: 75.0 mg/kg/injection, schedule: Q01DX009 (ip), vehicle: acetone 160 % of control | endpoint: mean survival time, dose: 75.0 mg/kg/injection, schedule: Q01DX009 (ip), vehicle: saline with Tween-80 150 % of control | endpoint: mean survival time, dose: 75.0 mg/kg/injection, schedule: Q01DX009 (ip), vehicle: saline 182 % of control | endpoint: mean survival time, dose: 150.0 mg/kg/injection, schedule: Q01DX009 (ip), vehicle: acetone 161 % of control | endpoint: mean survival time, dose: 180.0 mg/kg/injection, schedule: Q04DX003 (ip), vehicle: Klucel (hydroxypropylcellulose) (HPC) 160 % of control | endpoint: mean survival time, dose: 180.0 mg/kg/injection, schedule: Q04DX003 (ip), vehicle: saline with Tween-80 152 % of control | endpoint: mean survival time, dose: 400.0 mg/kg/injection, schedule: Q04DX003 (ip), vehicle: Klucel (hydroxypropylcellulose) (HPC) 172 % of control | endpoint: mean survival time, dose: 600.0 mg/kg/injection, schedule: Q04DX003 (ip), vehicle: Klucel (hydroxypropylcellulose) (HPC) 197 % of control | endpoint: mean survival time, dose: 600.0 mg/kg/injection, schedule: Q04DX003 (ip), vehicle: saline with Tween-80 198 % of control | endpoint: median survival time, dose: 128.0 mg/kg/injection, schedule: Q01DX001 (ip), vehicle: Klucel (hydroxypropylcellulose) (HPC) 153 % of control | endpoint: median survival time, dose: 256.0 mg/kg/injection, schedule: Q01DX001 (ip), vehicle: Klucel (hydroxypropylcellulose) (HPC) 175 % of control | endpoint: median survival time, dose: 512.0 mg/kg/injection, schedule: Q01DX001 (ip), vehicle: Klucel (hydroxypropylcellulose) (HPC) 180 % of control
inactive: endpoint: mean survival time, dose: 4.7 mg/kg/injection, schedule: Q01DX009 (ip), vehicle: saline with Tween-80 117 % of control | endpoint: mean survival time, dose: 16.5 mg/kg/injection, schedule: Q01DX009 (ip), vehicle: saline 118 % of control | endpoint: mean survival time, dose: 150.0 mg/kg/injection, schedule: Q01DX009 (ip), vehicle: saline with Tween-80 102 % of control | endpoint: mean survival time, dose: 266.0 mg/kg/injection, schedule: Q04DX003 (ip), vehicle: saline with Tween-80 111 % of control | endpoint: mean survival time, dose: 300.0 mg/kg/injection, schedule: Q01DX009 (ip), vehicle: saline with Tween-80 94 % of control | endpoint: median survival time, dose: 4.0 mg/kg/injection, schedule: Q01DX001 (ip), vehicle: lactic acid 101 % of control | endpoint: median survival time, dose: 8.0 mg/kg/injection, schedule: Q01DX001 (ip), vehicle: lactic acid 100 % of control | endpoint: median survival time, dose: 16.0 mg/kg/injection, schedule: Q01DX001 (ip), vehicle: lactic acid 103 % of control | endpoint: median survival time, dose: 16.0 mg/kg/injection, schedule: Q01DX001 (oral), vehicle: citric acid 97 % of control | endpoint: median survival time, dose: 16.0 mg/kg/injection, schedule: Q01DX001 (oral), vehicle: lactic acid 100 % of control | endpoint: median survival time, dose: 32.0 mg/kg/injection, schedule: Q01DX001 (ip), vehicle: lactic acid 111 % of control | endpoint: median survival time, dose: 32.0 mg/kg/injection, schedule: Q01DX001 (oral), vehicle: citric acid 103 % of control | endpoint: median survival time, dose: 32.0 mg/kg/injection, schedule: Q01DX001 (oral), vehicle: lactic acid 100 % of control | endpoint: median survival time, dose: 64.0 mg/kg/injection, schedule: Q01DX001 (ip), vehicle: Klucel (hydroxypropylcellulose) (HPC) 120 % of control | endpoint: median survival time, dose: 64.0 mg/kg/injection, schedule: Q01DX001 (oral), vehicle: citric acid 102 % of control | endpoint: median survival time, dose: 64.0 mg/kg/injection, schedule: Q01DX001 (oral), vehicle: lactic acid 103 % of control | endpoint: median survival time, dose: 128.0 mg/kg/injection, schedule: Q01DX001 (oral), vehicle: citric acid 97 % of control | endpoint: median survival time, dose: 128.0 mg/kg/injection, schedule: Q01DX001 (oral), vehicle: lactic acid 95 % of control | endpoint: median survival time, dose: 256.0 mg/kg/injection, schedule: Q01DX001 (oral), vehicle: citric acid 87 % of control | endpoint: median survival time, dose: 256.0 mg/kg/injection, schedule: Q01DX001 (oral), vehicle: lactic acid 94 % of control

CS(=O)(=O)OCCN(CCOS(C)(=O)=O)c1ccc(C=Nc2cccc(Br)c2)cc1
inactive: endpoint: mean survival time, dose: 2.5 mg/kg/injection, schedule: Q04DX003 (ip), vehicle: Klucel (hydroxypropylcellulose) (HPC) 103 % of control | endpoint: mean survival time, dose: 5.0 mg/kg/injection, schedule: Q04DX003 (ip), vehicle: Klucel (hydroxypropylcellulose) (HPC) 109 % of control | endpoint: mean survival time, dose: 10.0 mg/kg/injection, schedule: Q04DX003 (ip), vehicle: Klucel (hydroxypropylcellulose) (HPC) 117 % of control | endpoint: mean survival time, dose: 100.0 mg/kg/injection, schedule: Q04DX003 (ip), vehicle: Klucel (hydroxypropylcellulose) (HPC) 92 % of control

c1ccc(CSSCc2ccccc2)cc1
inactive: endpoint: mean survival time, dose: 100.0 mg/kg/injection, schedule: Q01DX009 (ip), vehicle: Klucel (hydroxypropylcellulose) (HPC) 100 % of control | [1] 92 % of control | [2] 96 % of control | [3] 88 % of control | [4] 102 % of control | [5] 92 % of control

CCCCCCCCCC(C)(O)C#CC(C)(O)CCCCCCCCC (configuration not stated)
inactive: endpoint: mean survival time, dose: 50.0 mg/kg/injection, schedule: Q01DX001 (ip), vehicle: carboxymethylcellulose (CMC) 93 % of control | endpoint: mean survival time, dose: 50.0 mg/kg/injection, schedule: Q04DX003 (ip), vehicle: carboxymethylcellulose (CMC) 91 % of control | [6] 95 % of control | endpoint: mean survival time, dose: 100.0 mg/kg/injection, schedule: Q04DX003 (ip), vehicle: carboxymethylcellulose (CMC) 89 % of control | [7] 91 % of control | endpoint: mean survival time, dose: 200.0 mg/kg/injection, schedule: Q04DX003 (ip), vehicle: carboxymethylcellulose (CMC) 89 % of control | [8] 100 % of control

COc1cc2c(cc1O)C(CCc1cc(OC)c(OC)c(OC)c1)=[N+](C)CC2
inactive: endpoint: mean survival time, dose: 25.0 mg/kg/injection, schedule: Q04DX002 (ip), vehicle: Klucel (hydroxypropylcellulose) (HPC) 101 % of control | endpoint: mean survival time, dose: 50.0 mg/kg/injection, schedule: Q04DX002 (ip), vehicle: Klucel (hydroxypropylcellulose) (HPC) 101 % of control | endpoint: mean survival time, dose: 100.0 mg/kg/injection, schedule: Q04DX002 (ip), vehicle: Klucel (hydroxypropylcellulose) (HPC) 105 % of control

O=C(CC(C(=O)c1ccccc1)N1CC1)c1ccccc1 (configuration not stated)
inactive: endpoint: mean survival time, dose: 50.0 mg/kg/injection, schedule: Q01DX009 (ip), vehicle: saline sonified 91 % of control | endpoint: mean survival time, dose: 50.0 mg/kg/injection, schedule: Q04DX003 (ip), vehicle: saline sonified 96 % of control | endpoint: mean survival time, dose: 100.0 mg/kg/injection, schedule: Q01DX009 (ip), vehicle: saline sonified 94 % of control | endpoint: mean survival time, dose: 100.0 mg/kg/injection, schedule: Q04DX003 (ip), vehicle: saline sonified 92 % of control | endpoint: mean survival time, dose: 200.0 mg/kg/injection, schedule: Q04DX003 (ip), vehicle: saline sonified 97 % of control

COc1ccc(/C=C2/CSC/C(=C/c3ccc(OC)c(OC)c3)C2=O)cc1OC
inactive: [1] 103 % of control | endpoint: mean survival time, dose: 200.0 mg/kg/injection, schedule: Q01DX009 (ip), vehicle: saline 86 % of control | [3] 94 % of control | [5] 94 % of control

ClC1=NC(c2ccc(Cl)cc2)N2C1C2c1ccccc1 (configuration not stated)
inactive: endpoint: mean survival time, dose: 100.0 mg/kg/injection, schedule: Q04DX003 (ip), vehicle: saline with Tween-80 92 % of control | endpoint: mean survival time, dose: 200.0 mg/kg/injection, schedule: Q04DX003 (ip), vehicle: saline with Tween-80 92 % of control | endpoint: mean survival time, dose: 400.0 mg/kg/injection, schedule: Q04DX003 (ip), vehicle: saline with Tween-80 94 % of control

Oc1ccc(N=C/C=C/c2ccccc2)cc1
inactive: [6] 86 % of control | [7] 89 % of control | [8] 91 % of control

CC(=O)CC(=O)Nc1cccc(O)c1
inactive: [2] 91 % of control | [4] 100 % of control

C=COC(=O)NCC(=O)O
inactive: endpoint: mean survival time, dose: 100.0 mg/kg/injection, schedule: Q01DX001 (ip), vehicle: saline 91 % of control | endpoint: mean survival time, dose: 200.0 mg/kg/injection, schedule: Q01DX001 (ip), vehicle: saline 97 % of control | endpoint: mean survival time, dose: 400.0 mg/kg/injection, schedule: Q01DX001 (ip), vehicle: saline 92 % of control

COc1cc2c(c(OC)c1OC)-c1ccc(=O)c(N)cc1C(NC(C)=O)CC2 (configuration not stated)
inactive: endpoint: mean survival time, dose: 1.8 mg/kg/injection, schedule: Q01DX Z (ip), vehicle: carboxymethylcellulose (CMC) 97 % of control | endpoint: mean survival time, dose: 3.7 mg/kg/injection, schedule: Q01DX Z (ip), vehicle: carboxymethylcellulose (CMC) 101 % of control | endpoint: mean survival time, dose: 7.5 mg/kg/injection, schedule: Q01DX Z (ip), vehicle: carboxymethylcellulose (CMC) 105 % of control | endpoint: mean survival time, dose: 15.0 mg/kg/injection, schedule: Q01DX Z (ip), vehicle: carboxymethylcellulose (CMC) 105 % of control | endpoint: mean survival time, dose: 30.0 mg/kg/injection, schedule: Q01DX Z (ip), vehicle: carboxymethylcellulose (CMC) 110 % of control and 112 % of control | endpoint: mean survival time, dose: 60.0 mg/kg/injection, schedule: Q01DX Z (ip), vehicle: carboxymethylcellulose (CMC) 114 % of control and 122 % of control | endpoint: mean survival time, dose: 240.0 mg/kg/injection, schedule: Q01DX Z (ip), vehicle: carboxymethylcellulose (CMC) 121 % of control
